Assay results as given in US20180044305A1, “3-SUBSTITUTED 1,3,4-OXADIAZOLE AND THIADIAZOLE COMPOUNDS AS IMMUNOMODULATORS” (AURIGENE DISCOVERY TECHNOLOGIES LIMITED, priority 2015, published 2018).

What follows are molecules tested against T1, Recombinant mouse PD-L1 (Mus musculus, UniProt Q9EP73) (assay: Rescue of mouse splenocyte proliferation in the presence of recombinant PD-L1 (CFSE proliferation assay)). Conditions: compound at 100 nM; CFSE-labelled mouse splenocytes + anti-CD3/CD28 + PD-L1, 72 h; normalised to stimulated splenocyte proliferation as 100%.
T1 construct: Fc (Fc chimera); purchased R&D Systems 1019-B7-100
T1 sequence (Q9EP73 with tags, fused parts or gaps limits assumed): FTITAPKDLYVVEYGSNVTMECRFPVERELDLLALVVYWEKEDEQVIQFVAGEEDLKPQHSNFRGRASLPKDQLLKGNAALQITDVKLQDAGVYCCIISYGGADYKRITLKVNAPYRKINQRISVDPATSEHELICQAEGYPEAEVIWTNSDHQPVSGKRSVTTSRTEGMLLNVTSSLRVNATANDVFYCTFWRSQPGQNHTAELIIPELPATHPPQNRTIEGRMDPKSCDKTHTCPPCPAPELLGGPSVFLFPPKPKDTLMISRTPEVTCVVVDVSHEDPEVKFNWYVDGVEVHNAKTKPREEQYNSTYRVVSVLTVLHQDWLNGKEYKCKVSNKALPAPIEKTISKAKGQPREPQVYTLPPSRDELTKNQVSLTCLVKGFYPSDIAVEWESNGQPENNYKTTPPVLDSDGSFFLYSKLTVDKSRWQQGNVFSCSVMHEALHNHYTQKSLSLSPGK
Assay type: cell-based
Description: Example 3: Rescue of Mouse Splenocyte Proliferation in the Presence of Recombinant PD-L1
Recombinant mouse PD-L1 (rm-PDL-1, cat no: 1019-B7-100; R&D Systems) were used as the source of PD-L1.
Mouse splenocytes harvested from 6-8 weeks old C57 BL6 mice; RPMI 1640 (GIBCO, Cat #11875); DMEM with high glucose (GIBCO, Cat #D6429); Fetal Bovine Serum [Hyclone, Cat #SH30071.03]; Penicillin (10000 unit/mL)-Streptomycin(10,000 μg/mL) Liquid (GIBCO, Cat #15140-122); MEM Sodium Pyruvate solution 100 mM (100×), Liquid (GIBCO, Cat #11360); Nonessential amino acid (GIBCO, Cat #11140); L-Glutamine (GIBCO, Cat #25030); Anti-CD3 antibody (eBiosciences—16-0032); Anti-CD28 antibody (eBiosciences—16-0281); ACK lysis buffer (1 mL) (GIBCO, Cat #-A10492); Histopaque (density—1.083 gm/mL) (SIGMA 10831); Trypan blue solution (SIGMA-T8154); 2 mL Norm Ject Luer Lock syringe-(Sigma 2014-12); 40 µm nylon cell strainer (BD FALCON 35230); Hemacytometer (Bright line-SIGMA Z359629); FACS Buffer (PBS/0.1% BSA): Phosphate Buffered Saline (PBS) pH 7.2 (HiMedia TS1006) with 0.1% Bovine Serum Albumin (BSA) (SIGMA A7050) and sodium azide (SIGMA 08591); 5 mM stock solution of CFSE: CFSE stock solution was prepared by diluting lyophilized CFSE with […] of Dimethyl sulfoxide (DMSO C2H6SO, SIGMA-D-5879) and aliquoted in to tubes for further use. Working concentrations were titrated from […] to 1 μM. (eBioscience—650850-85); 0.05% Trypsin and 0.02% EDTA (SIGMA 59417C); 96-well format ELISA plates (Corning CLS3390); BD FACS caliber (E6016); Recombinant mouse B7-H1/PDL1 Fc Chimera, (rm-PD-L1 cat no: 1019-B7-100).
Splenocytes harvested in a 50 mL falcon tube by mashing mouse spleen in a 40 µm cell strainer were further treated with 1 mL ACK lysis buffer for 5 min at room temperature. After washing with 9 mL of RPMI complete media, cells were re-suspended in 3 mL of 1×PBS in a 15 mL tube. 3 mL of Histopaque was added carefully to the bottom of the tube without disturbing overlaying splenocyte suspension. After centrifuging at 800×g for 20 min at room temperature, the opaque layer of splenocytes was collected carefully without disturbing/mixing the layers. Splenocytes were washed twice with cold 1×PBS followed by total cell counting using Trypan Blue exclusion method and used further for cell based assays.
Splenocytes were cultured in RPMI complete media (RPMI+10% fetal bovine serum+1 mM sodium pyruvate+10,000 units/mL penicillin and […] streptomycin) and maintained in a CO2 incubator with 5% CO2 at 37° C.
CFSE is a dye that passively diffuses into cells and binds to intracellular proteins. 1×10^6 cells/mL of harvested splenocytes were treated with […] of CFSE in pre-warmed 1×PBS/0.1% BSA solution for 10 min at 37° C. Excess CFSE was quenched using 5 volumes of ice-cold culture media to the cells and incubated on ice for 5 min. CFSE labelled splenocytes were further given three washes with ice cold complete RPMI media. […] Cells were harvested and washed thrice with ice cold FACS buffer and % proliferation was analysed by flow cytometry with 488 nm excitation and 521 nm emission filters.
Percent splenocyte proliferation was analysed using cell quest FACS program and percent rescue of splenocyte proliferation by compound was estimated after deduction of % background proliferation value and normalising to % stimulated splenocyte proliferation (positive control) as 100%. […]

| SMILES | Percent rescue of splenocyte proliferation (@100 nM) [%] |
| --- | --- |
| CC(O)[C@H](NC(=O)N[C@H](c1nnc(-c2ccco2)o1)C(C)C)C(=O)O (some centres unmarked) [Compound 7] | 28 |
| COc1ccccc1-c1nnc([C@H](CC(N)=O)NC(=O)N[C@@H](CCCCN)C(=O)O)o1 [Compound 11] | 60 |
| CC(O)[C@H](NC(=O)N[C@@H](CC(N)=O)c1nnc(-c2cnccn2)o1)C(=O)O (some centres unmarked) [Compound 13] | 63 |
| COc1ccccc1-c1nnc([C@H](CC(N)=O)NC(=O)N[C@H](C(=O)O)C(C)O)o1 (some centres unmarked) [Compound 16] | 7 |
| COc1ccccc1-c1nnc([C@H](CC(N)=O)NC(=O)N[C@@H](CCSC)C(=O)O)o1 [Compound 12] | 15 |
